The text below walks through data of patent publication US3937657A, “Electrowinning of copper” (Anumin Pty. Limited, priority 1971, dated 1976).

For series [1] the following is noted: 2 molar sulphuric acid, 100°C; reported; cited from earlier work.
Series [2] in a line: Hydrolysis/decomposition of nitriles in acidified solutions. It is filed as physicochemical.
A short description of series [3]: Solubilities of salts in acidified [2% v/v H2SO4] acetonitrile-water mixtures at 25°C (Table 3). Particulars: 2% v/v H2SO4, water.
Series [4] can be described thus: Oxidation of stirred cuprous sulphate solutions in acidified acetonitrile-water mixtures under oxygen (Table 2). It is filed as physicochemical. Particulars: 1.5% wt Cu^+, O2 1 atm. The text has this: Effect of Nitrile and Acid Concentration.
For series [5] the following is noted: acidified acetonitrile-water (10.8% ch3cn).
Method: Solubilities of salts in acidified [2% v/v H2 SO4 ] acetonitrile-water mixtures at 25°C.
Series [6] can be described thus: Solubility of sulphur in refluxing acetonitrile-water-sulphuric acid. It is filed as physicochemical. Particulars: refluxing 50% acetonitrile, 45% water, 5% sulphuric acid. The method, then:
c. Sulphur dissolved in refluxing 50% acetonitrile, 45% water, 5% sulphuric acid to the extent of about 0.05 gms/100 ml.

Like-named read-outs stand apart in the source and are kept apart here.

Consider `N#CCCO` [2-hydroxycyanoethane], for which the “rate of hydrolysis compared with acetonitrile” value in series [1] was “comparable rate”. Take `CC#N` [Acetonitrile, acetonitrile]: the “hydrolysed to acetic acid and ammonium acetate within” value in series [2] (2 molar sulphuric acid, sealed tube, 100°C) was no more than 24 h. In addition, in series [2] (acetonitrile, water, cuprous sulphate and 1N sulphuric acid, sealed tubes, 50°C, 2 months), the “loss of acetonitrile on heating” value is on record as “had not lost detectable amounts”.

For the compound `O=S(=O)([O-])[O-].[Cd+2]` [Cd SO4.8H2 O], the “Solubility (MX)” value in series [3] (15% v/v CH3CN) was 492 mg/mL.

With `O=S(=O)([O-])[O-].[Cu+].[Cu+]` [Cu2 SO4, cuprous sulphate], the “Time for 30% of theoretical O2 uptake” value in series [4] (10% vol CH3CN, 5% vol H2SO4, 25°C) came to 95 min; in series [4] (30% vol CH3CN, 2.5% vol H2SO4, 25°C), 330 min; in series [4] (30% vol CH3CN, 5% vol H2SO4, 25°C), 300 min; in series [4] (30% vol CH3CN, 10% vol H2SO4, 25°C) it was 375 min; in series [4] (50% vol CH3CN, 5% vol H2SO4, 25°C), 340 min.

On to `O.O.O.O.O.O.O.O.O.O=S(=O)([O-])[O-].O=S(=O)([O-])[O-].O=S(=O)([O-])[O-].[Fe+3].[Fe+3]` [Fe2 (SO4).9H2 O], for which, in series [5], the “Solubility (MX)” value was determined as 325 mg/mL. Consider `O.O.O.O.O.O.O.O=S(=O)([O-])[O-].[Ni+2]` [NiSO4.7H2 O], for which the “Solubility (MX)” value in series [3] (16.6% v/v CH3CN) is 231 mg/mL. Regarding `S1SSSSSSS1` [Sulphur, sulphur], in series [6], the Sulphur dissolved entry is “about 0.05 gms/100 ml”. Consider `N#CCO` [cyanohydrin of formaldehyde], for which the “decomposition in the nitrile suitability tests” value in series [2] (water and suitable acids, cuprous salts) is given as “decomposed rapidly”.
